{"source": "patent US9150544B2", "about": "(priority 2011, dated 2015)", "target": "human factor IXa (Homo sapiens (Human), UniProt P00740)", "sequence (P00740 whole entry, looked up)": "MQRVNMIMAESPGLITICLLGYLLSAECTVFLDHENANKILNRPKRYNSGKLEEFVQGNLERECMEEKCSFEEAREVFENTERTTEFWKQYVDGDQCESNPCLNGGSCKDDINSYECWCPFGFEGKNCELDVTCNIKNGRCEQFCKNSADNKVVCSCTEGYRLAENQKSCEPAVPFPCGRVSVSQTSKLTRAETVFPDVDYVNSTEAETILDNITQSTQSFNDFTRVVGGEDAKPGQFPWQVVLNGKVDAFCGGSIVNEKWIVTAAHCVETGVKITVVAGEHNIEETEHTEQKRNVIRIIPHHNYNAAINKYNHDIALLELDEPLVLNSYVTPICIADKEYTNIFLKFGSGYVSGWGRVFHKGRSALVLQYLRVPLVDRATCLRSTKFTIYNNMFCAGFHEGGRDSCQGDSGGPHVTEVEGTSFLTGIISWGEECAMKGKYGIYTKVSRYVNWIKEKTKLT", "sequence (P00740 whole entry partner, looked up)": "as the sequence (P00740 whole entry, looked up) above", "test": "biochemical", "details": "read-out: Imax IXa (percentage inhibition at the maximum concentration tested)", "data": [{"smiles": "COC(=O)[C@@H](Cc1cc2ccnc(N)c2cc1C(F)(F)F)N1CC[C@H](NS(=O)(=O)c2cnc(N3CCC(F)(F)C3)s2)C1=O", "note": "[Compound 90, (R)-3-(1-Amino-7-trifluoromethyl-isoquinolin-6-yl)-2-{(S)-3-[2-(3,3-difluoro-pyrrolidin-1-yl)-thiazole-5-sulfonylamino]-2-oxo-pyrrolidin-1-yl}-propionic acid methyl ester]", "values": [{"measurement": "inhibition at 5 µM", "result": 41, "unit": "%"}]}]}
